Assay results reported in US20260285888A1, “HETEROCYCLIC COMPOUND AND USE THEREOF” (OTSUKA PHARMACEUTICAL CO., LTD., priority 2023, published 2026).

Key:
in vitro = type: cell-based, human; conditions: human, differentiated hl-60 cells, 300 μmol/L, about 24 hours, PMA-differentiated HL-60 cells, LDH; no-treatment 0%, cell lysis buffer 100%; read-out: cytotoxicity (%) Evaluation compound results
Procedure, shortened: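 Cytotoxicity (%) from supernatant LDH activity after ~24 h treatment at 300 μmol/L final, normalised to no-treatment (0%) and lysis buffer (100%). Cells were PMA-differentiated (10 nM, ~72 h) HL-60 in 2% FBS medium; triplicate means.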

[1] = Study for confirmation of conversion to brexpiprazole in a buffer (stability of the evaluation compounds); type: physicochemical; conditions: in buffer, average of duplicate; for Concentration of brexpiprazole formed: 60-minute reaction sample; for Concentration of evaluation compound decreased: decrease in 60-minute vs 0-minute reaction sample
Procedure, shortened: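 Compounds (final 1 μmol/L, from 100 μmol/L working solutions) incubated in buffer at 37° C. for 0 or 60 min, in duplicate, after 3 min pre-incubation of the reaction solution. Reactions stopped with acetonitrile/isopropanol (4:1) containing internal standards; compound and formed brexpiprazole quantified against 0.01–1 μmol/L calibration samples.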

Which results are given for CC(C)OCCOCCOCCOC(=O)OCOP(=O)([O-])OC[N+]1(CCCCOc2ccc3ccc(=O)[nH]c3c2)CCN(c2cccc3sccc23)CC1 [EX 137, (4-(benzo[b]thiophen-4-yl)-1-(4-((2-oxo-1,2-dihydroquinolin-7-yl)oxy)butyl)piperazin-1-ium-1-yl)methyl (14-methyl-3-oxo-2,4,7,10,13-pentaoxapentadecyl) phosphate]?
cytotoxicity at 24 h, 300 µM (in vitro): -8%; Concentration of brexpiprazole formed [1]: 0 nM; Concentration of evaluation compound decreased [1]: 90 nM

For CCNP(=O)([O-])OC[N+]1(CCCCOc2ccc3ccc(=O)[nH]c3c2)CCN(c2cccc3sccc23)CC1 [EX 151, (4-(benzo[b]thiophen-4-yl)-1-(4-((2-oxo-1,2-dihydroquinolin-7-yl)oxy)butyl)piperazin-1-ium-1-yl)methyl ethylphosphoramidate], which cytotoxicity at 24 h, 300 µM (in vitro) is on record?
The cytotoxicity at 24 h, 300 µM was -6%.

And the “Concentration of brexpiprazole formed” value [1]?
The value was 0 nM.

What about the “Concentration of evaluation compound decreased” value [1] of the same molecule?
Its value is -10 nM.

What does the source list for CCOCCOCCOC(=O)OCOP(=O)([O-])OC[N+]1(CCCCOc2ccc3ccc(=O)[nH]c3c2)CCN(c2cccc3sccc23)CC1 [EX 134, (4-(benzo[b]thiophen-4-yl)-1-(4-((2-oxo-1,2-dihydroquinolin-7-yl)oxy)butyl)piperazin-1-ium-1-yl)methyl (3-oxo-2,4,7,10-tetraoxadodecyl) phosphate]?
cytotoxicity at 24 h, 300 µM (in vitro): -7%; Concentration of brexpiprazole formed [1]: 0 nM; Concentration of evaluation compound decreased [1]: 70 nM

Which results are given for C[C@H](NP(=O)([O-])OC[N+]1(CCCCOc2ccc3ccc(=O)[nH]c3c2)CCN(c2cccc3sccc23)CC1)C(=O)OC(C)(C)C [EX 157, (4-(benzo[b]thiophen-4-yl)-1-(4-((2-oxo-1,2-dihydroquinolin-7-yl)oxy)butyl)piperazin-1-ium-1-yl)methyl (S)-(1-(tert-butoxy)-1-oxopropan-2-yl)phosphoramidate]?
cytotoxicity at 24 h, 300 µM (in vitro): -4%; Concentration of brexpiprazole formed [1]: 0 nM; Concentration of evaluation compound decreased [1]: 80 nM

Which cytotoxicity at 24 h, 300 µM (in vitro) does the source give for CC(C)(CO)COP(=O)([O-])OC[N+]1(CCCCOc2ccc3ccc(=O)[nH]c3c2)CCN(c2cccc3sccc23)CC1 [EX 48, (4-(benzo[b]thiophen-4-yl)-1-(4-((2-oxo-1,2-dihydroquinolin-7-yl)oxy)butyl)piperazin-1-ium-1-yl)methyl (3-hydroxy-2,2-dimethylpropyl) phosphate] here?
The cytotoxicity at 24 h, 300 µM was -9%.

And the “Concentration of brexpiprazole formed” value [1]?
The value was 0 nM.

What about the “Concentration of evaluation compound decreased” value [1] of the same molecule?
Its value is -30 nM.

For CC(C)(C)[Si](C)(C)OCCCCOP(=O)([O-])OC[N+]1(CCCCOc2ccc3ccc(=O)[nH]c3c2)CCN(c2cccc3sccc23)CC1 [EX 60, (4-(benzo[b]thiophen-4-yl)-1-(4-((2-oxo-1,2-dihydroquinolin-7-yl)oxy)butyl)piperazin-1-ium-1-yl)methyl (4-((tert-butyldimethylsilyl)oxy)butyl) phosphate], which cytotoxicity at 24 h, 300 µM (in vitro) is on record?
The cytotoxicity at 24 h, 300 µM was 16%.

And the “Concentration of brexpiprazole formed” value [1]?
The value was 0 nM.

What about the “Concentration of evaluation compound decreased” value [1] of the same molecule?
The value was 90 nM.

Which results are given for CC(C)(O)CCOP(=O)([O-])OC[N+]1(CCCCOc2ccc3ccc(=O)[nH]c3c2)CCN(c2cccc3sccc23)CC1 [EX 41, (4-(benzo[b]thiophen-4-yl)-1-(4-((2-oxo-1,2-dihydroquinolin-7-yl)oxy)butyl)piperazin-1-ium-1-yl)methyl (3-hydroxy-3-methylbutyl) phosphate]?
cytotoxicity at 24 h, 300 µM (in vitro): -3%; Concentration of brexpiprazole formed [1]: 0 nM; Concentration of evaluation compound decreased [1]: 70 nM

Which results are given for CCCCOCCOCCOC(=O)OCOP(=O)([O-])OC[N+]1(CCCCOc2ccc3ccc(=O)[nH]c3c2)CCN(c2cccc3sccc23)CC1 [EX 135, (4-(benzo[b]thiophen-4-yl)-1-(4-((2-oxo-1.2-dihydroquinolin-7-yl)oxy)butyl)piperazin-1-ium-1-yl)methyl (3-oxo-2,4,7,10-tetraoxatetradecyl) phosphate]?
cytotoxicity at 24 h, 300 µM (in vitro): -4%; Concentration of brexpiprazole formed [1]: 0 nM; Concentration of evaluation compound decreased [1]: 70 nM

For O=c1ccc2ccc(OCCCC[N+]3(COP(=O)([O-])OCCCCCCCCCO)CCN(c4cccc5sccc45)CC3)cc2[nH]1 [EX 46, (4-(benzo[b]thiophen-4-yl)-1-(4-((2-oxo-1,2-dihydroquinolin-7-yl)oxy)butyl)piperazin-1-ium-1-yl)methyl (9-hydroxynonyl) phosphate], which cytotoxicity at 24 h, 300 µM (in vitro) is on record?
The cytotoxicity at 24 h, 300 µM was 14%.

What about the “Concentration of brexpiprazole formed” value [1] of the same molecule?
The value was 0 nM.

And the “Concentration of evaluation compound decreased” value [1]?
Its value is 40 nM.

Which results are given for O=C(OCOP(=O)([O-])OC[N+]1(CCCCOc2ccc3ccc(=O)[nH]c3c2)CCN(c2cccc3sccc23)CC1)N1CCOCC1 [EX 160, (4-(benzo[b]thiophen-4-yl)-1-(4-((2-oxo-1,2-dihydroquinolin-7-yl)oxy)butyl)piperazin-1-ium-1-yl)methyl (((morpholine-4-carbonyl)oxy)methyl) phosphate]?
cytotoxicity at 24 h, 300 µM (in vitro): 9%; Concentration of brexpiprazole formed [1]: 0 nM; Concentration of evaluation compound decreased [1]: -10 nM

With COCC(COC)OP(=O)([O-])OC[N+]1(CCCCOc2ccc3ccc(=O)[nH]c3c2)CCN(c2cccc3sccc23)CC1 [EX 56, (4-(benzo[b]thiophen-4-yl)-1-(4-((2-oxo-1,2-dihydroquinolin-7-yl)oxy)butyl)piperazin-1-ium-1-yl)methyl (1,3-dimethoxypropan-2-yl) phosphate] as the molecule, how does the cytotoxicity at 24 h, 300 µM (in vitro) read?
Its cytotoxicity at 24 h, 300 µM is -6%.

And the “Concentration of brexpiprazole formed” value [1]?
Its value is 0 nM.

What about the “Concentration of evaluation compound decreased” value [1] of the same molecule?
Its value is 40 nM.

For COCCNP(=O)([O-])OC[N+]1(CCCCOc2ccc3ccc(=O)[nH]c3c2)CCN(c2cccc3sccc23)CC1 [EX 152, (4-(benzo[b]thiophen-4-yl)-1-(4-((2-oxo-1,2-dihydroquinolin-7-yl)oxy)butyl)piperazin-1-ium-1-yl)methyl (2-methoxyethyl)phosphoramidate], which cytotoxicity at 24 h, 300 µM (in vitro) is on record?
The cytotoxicity at 24 h, 300 µM was -10%.

What about the “Concentration of brexpiprazole formed” value [1] of the same molecule?
Its value is 0 nM.

And the “Concentration of evaluation compound decreased” value [1]?
The value was 10 nM.

Which results are given for O=c1ccc2ccc(OCCCC[N+]3(COP(=O)([O-])OCCCCBr)CCN(c4cccc5sccc45)CC3)cc2[nH]1 [EX 62, (4-(benzo[b]thiophen-4-yl)-1-(4-((2-oxo-1,2-dihydroquinolin-7-yl)oxy)butyl)piperazin-1-ium-1-yl)methyl (4-bromobutyl) phosphate]?
cytotoxicity at 24 h, 300 µM (in vitro): 3%; Concentration of brexpiprazole formed [1]: 0 nM; Concentration of evaluation compound decreased [1]: 180 nM

What does the source list for O=c1ccc2ccc(OCCCC[N+]3(COP(=O)([O-])OCCCCCO)CCN(c4cccc5sccc45)CC3)cc2[nH]1 [EX 92]?
cytotoxicity at 24 h, 300 µM (in vitro): -7%; Concentration of brexpiprazole formed [1]: 0 nM; Concentration of evaluation compound decreased [1]: 110 nM

What does the source list for CCOC(=O)[C@H](C)OP(=O)([O-])OC[N+]1(CCCCOc2ccc3ccc(=O)[nH]c3c2)CCN(c2cccc3sccc23)CC1 [EX 104, (S)-(4-(benzo[b]thiophen-4-yl)-1-(4-((2-oxo-1,2-dihydroquinolin-7-yl)oxy)butyl)piperazin-1-ium-1-yl)methyl (1-ethoxy-1-oxopropan-2-yl) phosphate]?
cytotoxicity at 24 h, 300 µM (in vitro): -5%; Concentration of brexpiprazole formed [1]: 0 nM; Concentration of evaluation compound decreased [1]: 200 nM

With CCOC(=O)C1CCN(CCOP(=O)([O-])OC[N+]2(CCCCOc3ccc4ccc(=O)[nH]c4c3)CCN(c3cccc4sccc34)CC2)CC1 [EX 147, (4-(benzo[b]thiophen-4-yl)-1-(4-((2-oxo-1,2-dihydroquinolin-7-yl)oxy)butyl)piperazin-1-ium-1-yl)methyl (2-(4-(ethoxycarbonyl)piperidin-1-yl)ethyl) phosphate] as the molecule, how does the cytotoxicity at 24 h, 300 µM (in vitro) read?
The cytotoxicity at 24 h, 300 µM was -6%.

And the “Concentration of brexpiprazole formed” value [1]?
The value was 0 nM.

What about the “Concentration of evaluation compound decreased” value [1] of the same molecule?
The value was 70 nM.

Which cytotoxicity at 24 h, 300 µM (in vitro) does the source give for O=c1ccc2ccc(OCCCC[N+]3(COP(=O)([O-])OC/C=C\CO)CCN(c4cccc5sccc45)CC3)cc2[nH]1 [EX 43, (Z)-(4-(benzo[b]thiophen-4-yl)-1-(4-((2-oxo-1,2-dihydroquinolin-7-yl)oxy)butyl)piperazin-1-ium-1-yl)methyl (4-hydroxybut-2-en-1-yl) phosphate] here?
The cytotoxicity at 24 h, 300 µM was -6%.

What about the “Concentration of brexpiprazole formed” value [1] of the same molecule?
The value was 0 nM.

What about the “Concentration of evaluation compound decreased” value [1] of the same molecule?
Its value is 120 nM.

For COCCCOC(=O)OCOP(=O)([O-])OC[N+]1(CCCCOc2ccc3ccc(=O)[nH]c3c2)CCN(c2cccc3sccc23)CC1 [EX 139, (4-(benzo[b]thiophen-4-yl)-1-(4-((2-oxo-1,2-dihydroquinolin-7-yl)oxy)butyl)piperazin-1-ium-1-yl)methyl ((((3-methoxypropoxy)carbonyl)oxy)methyl) phosphate], which cytotoxicity at 24 h, 300 µM (in vitro) is on record?
Its cytotoxicity at 24 h, 300 µM is -4%.

What about the “Concentration of brexpiprazole formed” value [1] of the same molecule?
Its value is 0 nM.

And the “Concentration of evaluation compound decreased” value [1]?
The value was 120 nM.
